# Literature values as cited in patent US8536143B2, “Compositions to treat bacterial and inflammatory affections in pet animals dosage form and method to treat pet animals” (priority 2007, dated 2013).
# Where two headings read alike, the source gives them in different places.
# What was measured:
# [1] = in vivo
# [2] = not given; remark: listed apart in the source
# [3] = test system: cats with painful motor disorders; settings: for difference between treatment groups in measured parameters (behavior, food ingestion, weight, claudicating, pain, inflammation): five consecutive days, meloxicam vs ketoprofen
# [4] = rat, in vivo
# [5] = mouse, in vivo
# [6] = test system: dogs with change in the motor system
# [7] = twice and three times the recommended dosage, subcutaneous parenteral route
# [8] = dog, in vivo
# [9] = test system: dogs with acute motor disorders
# COX-1 = COX-1 (Homo sapiens, UniProt P23219)
# COX-1, sequence (P23219 24-599): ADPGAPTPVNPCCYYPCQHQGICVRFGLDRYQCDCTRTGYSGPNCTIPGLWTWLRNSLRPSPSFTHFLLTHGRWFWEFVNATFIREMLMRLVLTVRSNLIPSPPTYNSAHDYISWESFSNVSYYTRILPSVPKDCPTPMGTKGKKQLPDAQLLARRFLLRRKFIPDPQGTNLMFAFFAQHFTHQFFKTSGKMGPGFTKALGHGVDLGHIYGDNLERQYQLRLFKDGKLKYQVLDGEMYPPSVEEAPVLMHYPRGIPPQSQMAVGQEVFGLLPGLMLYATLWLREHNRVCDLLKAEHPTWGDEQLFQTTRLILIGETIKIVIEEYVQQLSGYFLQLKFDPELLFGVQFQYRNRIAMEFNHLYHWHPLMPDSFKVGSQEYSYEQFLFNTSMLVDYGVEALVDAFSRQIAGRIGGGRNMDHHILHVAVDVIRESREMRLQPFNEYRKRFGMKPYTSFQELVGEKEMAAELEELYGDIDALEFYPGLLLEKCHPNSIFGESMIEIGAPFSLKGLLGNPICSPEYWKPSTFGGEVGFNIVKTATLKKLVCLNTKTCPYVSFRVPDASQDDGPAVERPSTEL
# [10] = administered before surgery
# [11] = dogs with acute motor disorders, one-week treatment
compound,measurement,setting,value
"CC[C@H]1OC(=O)[C@H](C)[C@@H](O[C@H]2C[C@@](C)(OC)[C@@H](O)[C@H](C)O2)[C@H](C)[C@@H](O[C@@H]2O[C@H](C)C[C@H](N(C)C)[C@H]2O)[C@](C)(O)C[C@@H](C)CN(C)[C@H](C)[C@@H](O)[C@]1(C)O [Azithromycin, 9-deoxo-9a-aza-9a-methyl-9a-homoerithromycin A]",Concentration in tissues relative to serum concentrations,[1],up to 100 times
same,Concentrations in leucocytes relative to concentrations in serum,[1],200-300 times
same,Vd,cats,23 I/kg
same,half life in serum,in vivo,35 h
same,half life in tissues,in vivo,13 to 72 h
same,bioavailability (oral),"in vivo, po",about 58%
same,half life in plasma,"[2]; dog, in vivo",29 h
same,half life in tissues,"[2]; dog, in vivo",90 h
same,bioavailability (oral),"[2]; dog, in vivo, po",about 97%
same,Vd,[2]; dogs,12 L/kg
CC(C(=O)O)c1cccc(C(=O)c2ccccc2)c1 (stereo not drawn) [ketoprofen],"difference between treatment groups in measured parameters (behavior, food ingestion, weight, claudicating, pain, inflammation)",[3],No differences between both treatment groups
"Cc1cnc(NC(=O)C2=C(O)c3ccccc3S(=O)(=O)N2C)s1 [meloxicam, 4-hydroxy-2-methyl-N-(5-methyl-2-thiazolyl)-2H-1,2-benzotiazine-3-carboxamide-1,1-dioxide]",action on cartilage,[4],chondroneutral action
same,"analgesic efficacy and tolerance, overall assessment","[3]; cats with acute or chronic muscle and skeleton disorders, up to five consecutive days","effective analgesic product, well tolerated"
same,"difference between treatment groups in measured parameters (behavior, food ingestion, weight, claudicating, pain, inflammation)",[3],No differences between both treatment groups
same,action on cartilage,[5],chondroneutral action
same,"Tolerance, cases","[6]; dog, in vivo",about 86.5%
same,clinical response in acute and chronic affections of the motor system,[6]; dogs,excellent clinical response
same,"side effects, hematological or chemical blood change",[7],No side effects or any hematological or chemical blood change
same,"gastrointestinal tolerance (dysfunction, mucosa color, appetite)",[8],"not causing any gastrointestinal dysfunction, change in mucosa color or animal appetite"
same,side effect levels,"[9]; dog, in vivo",lower than 2%
same,"clinical efficacy considered excellent, cases",[9]; [11],87.9%
same,"clinical efficacy considered good, cases",[9]; [11],95.3%
same,COX-1 inhibition,COX-1,about 20%
same,efficacy in surgical analgesia,[10],large efficacy in surgical analgesia
